Measured values published in US6488564B1, “Brassiere protecting against eletrostatic field induced tissue degradation” (priority 1999, dated 2002).

What was measured:
[1] = tested on: B6C3F1 mouse; experiment: Example B: animal deaths after ADM with or without electrostatic field exposure in tumor-bearing mice; format: in vivo; set-up: key to animal death: “X” indicates an animal death
Excerpt: Before methods for practicing the present invention are discussed, it will be helpful to note the results of examples of the inventor's studies with animals exposed to electrostatic fields, and to electrostatic fields and chemicals in combination. The total scope of the inventor's studies regarding electrostatic field influence inside a living body has involved over 350 tumor bearing rodents, however for the sake of brevity only four such studies will be noted here. The inventor's research protocol used the B6C3F1 mouse strain. This mouse is recognized by the National Cancer Institute as one Standard for chemotherapy research, and is one of the commonly accepted rodent species used in cancer studies. For the inventor's studies, female mice were implanted with murine mammary 16/C adenocarcinoma, a commonly used tumor for cancer research. The 16/C murine mammary tumor is particularly aggressive, and can normally grow from a barely visible, or even invisible, bump under the skin the day after the implant, to 10 to 20 percent of the animal's total body weight by day 14 (tumor size typically up to 4 grams). Approximately equal-sized tumor fragments were implanted in each mouse's axillary region through a puncture in the inguinal region. All test animals were approximately six weeks old, with a body weight of 17 to 20 grams at the time of implant. Also, food and water were provided ad libitum throughout each study, and all Groups were exposed to the same temperature and light conditions (lights on 12 hours and off 12 hours each day). The studies were blinded in both the assignment of the animals to the study groups, and in all tumor measurements.
After the tumors were allow to establish and grow for several days, the mice were treated with adriamycin (ADM), a commonly used chemotherapeutic agent, at dose levels based on their individual weight and known to be safe. Following this, the animals were blindly divided into the study groups. The growth rate of the tumors in a Control Group, without exposure to electrostatic fields, was compared to that of Test Groups that were under the influence of an electrostatic field. Tumor measurements were made by caliper using the prolate ellipsoid formula of the National Cancer Institute to convert the measurements into weight. This method allowed the tumor weight of each animal to be tracked throughout the study.
The mice in each Test Group were subjected to electrostatic fields with the use of special cages. When the application of electrostatic fields was required, special equipment was used to expose the desired animal groups to an electrostatic field with an intensity of approximately 79,000 V/m from a charged element insulated from the animals.
This study used three groups of 11 tumor-bearing animals each. There was not a statistical difference in the size of the animal tumors at the start of the study. All of the animals were treated twice with 8 mg/kg ADM given on days 3 and 5 (16 mg/kg total). In addition, Groups B&C were exposed to an electrostatic field for 4 hours following each injection.
GA: Control, treated with ADM and no electrostatic field exposure.
GB: ADM plus exposure to a negative 15 kV DC charged screen 25.4 mm above, with a grounded grid below, the animals (90 mm between screen and grid).
GC: ADM plus exposure to 15 minute cycles of positive then negative 15 kV DC on a screen 25.4 mm above, with a grounded grid below, the animals (90 mm between screen and grid).
In this study the inventor inadvertently allowed the applied electrostatic fields in Groups B and C to increase the affect of the ADM to a lethal level. […] The electrostatic fields Groups B and C were exposed to increased the reaction of body cells to the ADM, creating the effect of a lethal overdose. […]

[2] = tested on: murine mammary 16/C adenocarcinoma; experiment: Example A: tumor regression by ADM with or without electrostatic field exposure in tumor-bearing mice; format: in vivo, B6C3F1 mouse
Excerpt: The inventor's research protocol used the B6C3F1 mouse strain. […] For the inventor's studies, female mice were implanted with murine mammary 16/C adenocarcinoma, a commonly used tumor for cancer research. […] Approximately equal-sized tumor fragments were implanted in each mouse's axillary region through a puncture in the inguinal region. All test animals were approximately six weeks old, with a body weight of 17 to 20 grams at the time of implant. Also, food and water were provided ad libitum throughout each study, and all Groups were exposed to the same temperature and light conditions (lights on 12 hours and off 12 hours each day). The studies were blinded in both the assignment of the animals to the study groups, and in all tumor measurements.
In the first study noted here, four groups of 11 tumor bearing animal each were used. […] All of the animals were treated with 12 mg/kg ADM on day 4, and housed in cages containing an insulated metal screen suspended 25.4-mm above the animals.
GA: Control, treated with ADM and no electrostatic field exposure. The screen above animals was not charged.
GB: The screen was charged, and changed from positive to negative 15 kV DC once each 15 minutes.
GC: The screen was charged 15 kV DC, and changed from positive to negative once each 15 minutes. The animals were on a grounded wire grid cage floor (115 mm between the screen and floor).
GD: The screen was charged, and changed from positive to negative 15 kV once each 15 minutes. There was no ground plane nearby.

COc1cccc2c1C(=O)c1c(O)c3c(c(O)c1C2=O)C[C@@](O)(C(=O)CO)C[C@@H]3O[C@H]1C[C@H](N)[C@H](O)[C@H](C)O1 [ADM, adriamycin]
ill affect ([1]; GA: 8 mg/kg ADM days 3 and 5, without exposure to a static field): no ill affect until day 30 | animal death ([1]; Group A: 8 mg/kg ADM days 3 and 5, no field, day 30 (death from tumor, not ADM)): X | animal death ([1]; Group B: 8 mg/kg ADM days 3 and 5 plus negative 15 kV DC field 4 hours after each injection, day 12): XXX | animal death ([1]; Group B: 8 mg/kg ADM days 3 and 5 plus negative 15 kV DC field 4 hours after each injection, day 18): X | animal death ([1]; Group B: 8 mg/kg ADM days 3 and 5 plus negative 15 kV DC field 4 hours after each injection, day 19): X | animal death ([1]; Group B: 8 mg/kg ADM days 3 and 5 plus negative 15 kV DC field 4 hours after each injection, day 22): X | animal death ([1]; Group B: 8 mg/kg ADM days 3 and 5 plus negative 15 kV DC field 4 hours after each injection, day 28): X | animal death ([1]; Group C: 8 mg/kg ADM days 3 and 5 plus 15 minute cycles of positive then negative 15 kV DC field 4 hours after each injection, day 11): X | animal death ([1]; Group C: 8 mg/kg ADM days 3 and 5 plus 15 minute cycles of positive then negative 15 kV DC field 4 hours after each injection, day 12): XXXXX | necropsy of the dead animals ([1]; Groups B and C: 8 mg/kg ADM days 3 and 5 plus electrostatic field): obvious heart enlargement | tumor wt. loss ([2]; GA: 12 mg/kg ADM on day 4, no electrostatic field exposure (screen not charged)): −24% | tumor wt. loss ([2]; GB: 12 mg/kg ADM on day 4 plus screen changed positive to negative 15 kV DC each 15 minutes, grounded wire grid below cage): −86% | tumor wt. loss ([2]; GC: 12 mg/kg ADM on day 4 plus screen 15 kV DC changed positive to negative each 15 minutes, animals on grounded wire grid cage floor): −80% | tumor wt. loss ([2]; GD: 12 mg/kg ADM on day 4 plus screen changed positive to negative 15 kV each 15 minutes, no ground plane nearby): −75%
